Source: patent US6319898A, “Method for inhibiting eukaryotic protein kinases” (Terragen Diversity, Inc., priority 1998, dated 2001)
Residues, ends and D or L forms follow the SMILES beside them.

Columns and labels:
[1] = tested on: Protein Kinase C purified from rat brain; assay: Protein Kinase C colorimetric assay (Pierce), absorbance at 570 nm; type: biochemical; settings: for absorbance read at 570 nm: 10 ng PKC + 10 ug, 30 min at 30° C, control reaction 0.228 (srf), 0.203 (polymyxin B)
Experimental: Protein Kinase C purified from rat brain was obtained from Upstate Biotechnology. The activity of the enzyme was assayed in a colorimetric assay developed by Pierce. Reaction mixtures were prepared to contain 5 ul each of the 5×reaction buffer, the dye labeled glycogen synthase synthetic peptide substrate reconstituted to 1.77 mM and the 5× activator solution of phosphatidyl-L-serine, all supplied by Pierce in a PKC assay kit. The activator solution was sonicated for 30 sec. on ice prior to use. 1 ul of the kinase (equivalent to 10 ng of enzyme with a specific activity of 12.1 units/mg) was added to 10 ul of a solution containing the compound to be tested for inhibitory activity and allowed to stand at room temperature for 10 minutes then transferred to the reaction tube containing the substrate and incubated 30 min. at 30° C. After incubation 20 ul of each sample was applied to the centre of the affinity membrane in the separation units supplied with the assay kit. These membranes specifically bind the phosphorylated dye labeled substrate while non-phosphorylated peptide will pass through when spun at low speeds. After washing the membranes the phosphorylated peptide was eluted by spinning with the elution buffer and absorbance read at 570 nm in a Molecular Devices V-max plate reader.

S. aureus = assay: Growth inhibition of S. aureus; type: cell-based; settings: surfactin in these concentrations (1 to 10 ug on the disc)
Description: (§1) Eventually the inhibition is overcome and the culture sporulates.

E. coli = assay: Growth inhibition of E. coli; type: cell-based; settings: surfactin in these concentrations (1 to 10 ug on the disc)
Description: as §1

Streptomyces 85E = assay: Inhibition of sporulation of Streptomyces 85E, filter paper disc on seeded plate; type: cell-based, Streptomyces WEC478-85E; settings: surfactin in these concentrations (1 to 10 ug on the disc)
Experimental: In the test assay, material to be tested was applied to a filter paper disk and then placed on a plate which has been freshly seeded with the strain […] test organism. The test organism is then allowed to grow in the presence of the filter paper disk for a period of 24 to 36 hours, after which the organism is evaluated for altered development in the zone around the disk. An observation of an inhibition of the formation of aerial mycelia and spores, without inhibition of the growth of vegetative mycelia is particularly indicative of the presence of an inhibitor of post-translational phosphorylation. Samples of surfactin prepared as described from Bacillus 60A as well as surfactin from Bacillus subtilis with the same molecular weight (1036) obtained from Sigma were tested for their ability to inhibit sporulation of Streptomyces […].

Human c-Src (p60^c-src) = target: T1, Human c-Src (p60^c-src) (Homo sapiens, UniProt P12931); assay: c-Src tyrosine kinase ELISA based assay (Pierce), absorbance at 450 nm; type: biochemical
T1 construct: purchased Upstate Biotechnology
T1 sequence (P12931 whole entry): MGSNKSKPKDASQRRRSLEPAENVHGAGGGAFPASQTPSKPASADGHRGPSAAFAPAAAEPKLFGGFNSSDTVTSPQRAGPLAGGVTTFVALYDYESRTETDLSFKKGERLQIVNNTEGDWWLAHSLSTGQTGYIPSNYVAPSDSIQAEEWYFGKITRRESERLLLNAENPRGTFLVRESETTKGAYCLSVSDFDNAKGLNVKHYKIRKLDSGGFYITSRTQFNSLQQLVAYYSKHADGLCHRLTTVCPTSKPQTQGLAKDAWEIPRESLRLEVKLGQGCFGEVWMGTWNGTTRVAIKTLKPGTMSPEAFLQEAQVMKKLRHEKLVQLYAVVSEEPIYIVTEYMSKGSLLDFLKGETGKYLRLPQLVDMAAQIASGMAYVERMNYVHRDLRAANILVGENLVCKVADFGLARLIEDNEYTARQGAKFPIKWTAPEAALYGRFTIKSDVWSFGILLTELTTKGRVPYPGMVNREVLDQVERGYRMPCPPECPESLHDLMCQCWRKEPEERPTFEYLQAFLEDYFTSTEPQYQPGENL
Experimental: Human c-Src (p60^c-src) was obtained from Upstate Biotechnology. The activity of the enzyme was assayed in an ELISA based assay developed by Pierce. Following their protocol, 500 ng of a biotinylated peptide substrate in distilled water (Pierce biotinylated peptide substrate #2, sequence Biotin-EGPWLEEEEEAYGWMDF) (SEQ ID NO:2) was added to a NeutrAvidin™ coated well, incubated at 37° C. for 30 minutes to allow binding to the well then washed with Tris-buffered saline (TBS, 25 mM Tris, 0.15 M NaCl, pH 7.6). For each reaction, a reaction buffer mixture was prepared to contain 10 ul of src assay buffer (100 mM Tris-HCl, pH 7.2, 25 mM MnCl2, 2.0 mM EGTA, 0.25 mM Na3 VO4, 125 mM Mg Acetate) 20 ul of ATP/MgCl2 buffer (5 mM ATP, 50 MM MgCl2 in TBS) and 1 ul of protease inhibitor mix (PMSF and pepstatin, final concentrations in Rx: 0.5 mM and 1.5 uM). The src enzyme is supplied at a concentration of 3 units per microliter and dilutions of the kinase were prepared in 1% bovine serum albumin (BSA) in TBS typically to final concentrations of 0.2 or 0.4 units in 10 ul. 10 ul of a solution of a compound to be tested for inhibitory activity was added to the reaction buffer mixture and allowed to stand 10-15 min. at room temperature, then 10 ul of the diluted kinase enzyme was added and the mixture was allowed to stand 10 min. at room temperature before addition to the substrate coated well. The plate was incubated at 30° C. for varying periods of time then the contents were washed out with repeated rinsings with TBS. A mouse monoclonal anti-phosphotyrosine antibody (PY20) conjugated to horseradish peroxidase (Pierce) was diluted 1:2000 in 1% BSA diluent from 1 mg/ml and 75 ul of this dilution was added to each well, incubated 1 hour at 37° C. then washed out with repeated rinsings with TBS.
100 ul of horseradish peroxidase substrate solution (3,3',5,5' tetramethylbenzidine and H2 O2, Pierce TMB-ELISA) was added to each well and after 10 min. the reaction was stopped with the addition of 100 ul of 1 N H2 SO4. Absorbance was read at 450 nm in a Molecular Devices V-max plate reader.
Examples of inhibition detected using this assay: (Values reported are the absorbance readings after subtraction of a blank well containing no enzyme.)

## Polymyxin B [reference compound]
[1]
  absorbance read at 570 nm: 0.035

## CC(C)CCCCCCCCC[C@@H]1CC(=O)N[C@@H](CCC(=O)O)C(=O)N[C@@H](CC(C)C)C(=O)N[C@H](CC(C)C)C(=O)N[C@@H](C(C)C)C(=O)N[C@@H](CC(=O)O)C(=O)N[C@H](CC(C)C)C(=O)N[C@@H](CC(C)C)C(=O)O1 [surfactin] (HELM PEPTIDE1{E.L.[dL].V.D.[dL].L}|CHEM1{[CC(C)CCCCCCCCC[C@H](CC(=O)[*:1])O[*:2]]}$PEPTIDE1,CHEM1,1:R1-1:R1|PEPTIDE1,CHEM1,7:R2-1:R2$$$V2.0)
S. aureus
  inhibition of growth of S. aureus: does not inhibit growth
E. coli
  inhibition of growth of E. coli: does not inhibit growth
Streptomyces 85E
  inhibition of growth of the vegetative mycelia: does not inhibit growth of the vegetative mycelia
  persistence of the inhibition of aerial mycelia and spore formation after unaffected portions of the culture have sporulated: 3 to 4 days
[1]
  absorbance read at 570 nm: 0.181
[1]; 380 uM in the reaction
  inhibition of Protein Kinase C: only minimally inhibitory
Human c-Src (p60^c-src); 100 uM in the reaction
  inhibition of the activity of the tyrosine kinase: has inhibited the activity of the tyrosine kinase tested
Human c-Src (p60^c-src); 200 uM in the reaction (10 ug)
  inhibition of the activity of the tyrosine kinase: has inhibited the activity of the tyrosine kinase tested
Human c-Src (p60^c-src); 0.05 unit c-Src + 10 ug, 30 min at 30° C, control reaction 0.315
  absorbance reading after subtraction of a blank well containing no enzyme: 0.050
Human c-Src (p60^c-src); 0.1 unit c-Src + 10 ug, 30 min at 30° C, control reaction 0.391
  absorbance reading after subtraction of a blank well containing no enzyme: 0.093
Human c-Src (p60^c-src); 0.2 unit c-Src + 5 ug, 5 min at 30° C, control 0.220
  absorbance reading after subtraction of a blank well containing no enzyme: 0.185
Human c-Src (p60^c-src); 0.2 unit c-Src + 10 ug, 5 min at 30° C, control 0.220
  absorbance reading after subtraction of a blank well containing no enzyme: 0.087
Human c-Src (p60^c-src); 0.2 unit c-Src + 10 ug, 30 min at 30° C, control reaction 0.396
  absorbance reading after subtraction of a blank well containing no enzyme: 0.191
Human c-Src (p60^c-src); 0.4 unit c-Src + 10 ug, 30 min at 30° C, control reaction 0.517
  absorbance reading after subtraction of a blank well containing no enzyme: 0.311
Human c-Src (p60^c-src); conclusion from the c-Src and PKC assays
  potency against the tyrosine kinase c-Src compared with the serine-threonine kinase PKC: more potent inhibitors of the tyrosine kinase tested than this serine-threonine kinase
